Measurements taken from article PMC7797062, “Structural basis for guide RNA trimming by RNase D ribonuclease in Trypanosoma brucei” (Nucleic Acids Research, 2020).

Experiments:
TbRND (RND-WT) = target: T1, TbRND (RND-WT) (Trypanosoma brucei, UniProt Q38DE2); test: X-ray crystal structure (soak of apo crystals); type: binding; conditions: 10 mM NMP and 10 mM MnCl2 soak, 10 min
T1 construct: gene Tb09.211.3670; residues 41-390 (N-terminal 40 residues with mitochondrial localization signal removed); codon-optimized gene; E. coli BL21(DE3); His-Sumo tag cut with Ulp1; monomer per asymmetric unit
T1 sequence (Q38DE2 41-390): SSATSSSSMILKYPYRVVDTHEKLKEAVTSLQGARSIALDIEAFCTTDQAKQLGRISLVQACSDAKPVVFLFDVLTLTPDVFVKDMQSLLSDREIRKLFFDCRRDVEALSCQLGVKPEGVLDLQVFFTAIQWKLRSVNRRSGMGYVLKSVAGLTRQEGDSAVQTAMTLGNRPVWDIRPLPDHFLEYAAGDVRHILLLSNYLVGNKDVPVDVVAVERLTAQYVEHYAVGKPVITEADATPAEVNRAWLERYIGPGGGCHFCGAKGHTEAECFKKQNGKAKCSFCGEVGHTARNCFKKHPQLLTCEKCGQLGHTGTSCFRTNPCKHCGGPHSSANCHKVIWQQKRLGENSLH

TbRND ΔZF_3-4 = TbRND ΔZF_3-4 (Trypanosoma brucei, UniProt Q38DE2 41-341); test: X-ray crystallography (1.77 A); Ca2+ (10 mM CaCl2), Zn2+; EMSA: 20 mM Tris-HCl pH 8.0, 200 mM NaCl, 2 mM DTT, 0.2 uM FAM-RNA, 1 h on ice; 6% native PAGE in 0.5x TBE at 4 C; conditions: protein: recombinant; tags: His-SUMO removed by Ulp1; single strand
RND-Exo = target: T2, RND-Exo (Trypanosoma brucei, UniProt Q38DE2 41-296); test: EMSA; no obvious shift up to 20 uM protein, 0.2 uM RNA; EMSA: 20 mM Tris-HCl pH 8.0, 200 mM NaCl, 2 mM DTT, 0.2 uM FAM-RNA, 1 h on ice; 6% native PAGE in 0.5x TBE at 4 C; conditions: protein: recombinant; tags: His-SUMO removed by Ulp1; label: 5'-FAM; single strand
T2 sequence: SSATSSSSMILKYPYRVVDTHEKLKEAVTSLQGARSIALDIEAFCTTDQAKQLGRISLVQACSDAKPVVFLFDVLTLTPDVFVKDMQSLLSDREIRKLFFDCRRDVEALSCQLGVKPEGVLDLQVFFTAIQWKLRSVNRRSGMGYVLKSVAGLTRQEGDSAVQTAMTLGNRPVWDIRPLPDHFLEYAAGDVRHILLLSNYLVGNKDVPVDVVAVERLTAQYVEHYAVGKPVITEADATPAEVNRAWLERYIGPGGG

Molecule: Nc1ncnc2c1ncn2[C@@H]1O[C@H](COP(=O)(O)O)[C@@H](O)[C@H]1O [AMP]
- X-ray crystal structure (soak of apo crystals) (TbRND (RND-WT); site: R0 of Exo domain (none in ZF1 groove), b55 says ATP soaked crystals): one AMP was captured at the R0 site in the A-form structure

Molecule: Nc1ccn([C@@H]2O[C@H](COP(=O)(O)O)[C@@H](O)[C@H]2O)c(=O)n1 [CMP]
- X-ray crystal structure (soak of apo crystals) (TbRND (RND-WT); site: ZF1 groove, also R2 site of Exo domain): one CMP nucleotide was bound in ZF1 groove

Molecule: Nc1nc2c(ncn2[C@@H]2O[C@H](COP(=O)(O)O)[C@@H](O)[C@H]2O)c(=O)[nH]1 [GMP]
- X-ray crystal structure (soak of apo crystals) (TbRND (RND-WT); sites: R0 and R2 of Exo domain, ZF1 groove, ZF2 groove (Mn2+-dependent), 2.25 A): we observed two GMP molecules in the G-form structure

Molecule: O=c1ccn([C@@H]2O[C@H](COP(=O)(O)O)[C@@H](O)[C@H]2O)c(=O)[nH]1 [UMP]
- X-ray crystal structure (soak of apo crystals) (TbRND (RND-WT); site: ZF1 groove): one well-defined UMP molecule was captured in the groove of ZF1

Molecule: UUUUUUUUUUUU (ssRNA) [RNA-12U]
- binding result (TbRND ΔZF_3-4): binds

Molecule: AACUUGUUUUUUUU (ssRNA) [RNA1]
- binding result (RND-Exo): no binding
